Experimental findings from ChEMBL document CHEMBL2407022, “Advancement of Imidazo[1,2-a]pyridines with Improved Pharmacokinetics and Nanomolar Activity Against Mycobacterium tuberculosis” (ACS Med Chem Lett, 2013) are described below.

As a reminder, the MIC99 is the lowest concentration that inhibits either 99% of growth or 99% of the strains tested, depending on the study. Low values mean greater potency, high ones weaker potency. As usually defined, the clearance is the rate of elimination divided by the concentration. Low values mean a low capacity for elimination, high ones a high capacity for elimination. What is called inhibition is how much of the control response was suppressed. The half-life is the time needed for the level to fall by half in the phase considered. In general, Tmax refers to the time from dosing to the highest level. The MIC90 is an inhibitory concentration at the 90% level, which refers to growth in some studies and to a panel of isolates in others.

Data set [1] deals with Mycobacterium tuberculosis. Nature of the data set: Antimycobacterial activity against Mycobacterium tuberculosis H37Rv expressing pCHERRY3 after 4 days by plate format assay. The data set is classed as functional. Conditions: 96 h.
Data set [2] can be described thus: Drug metabolism in dog liver microsomes at 2 uM after 30 mins by LC-MS analysis. Format: ADME, Canis lupus familiaris, Microsome. To be noted: read-out: Drug metabolism. In general terms: Liver microsomes are vesicles of endoplasmic reticulum, rich in cytochrome P450 enzymes.
The test system of data set [3] is Mycobacterium tuberculosis. Nature of the data set: Antimycobacterial activity against isoniazid, rifampin, ethambutol, pyrazinamide, streptomycin, kanamycin and p-aminosalicylic acid-resistant Mycobacterium tuberculosis after 14 days. The data set is classed as functional. To be noted: 336 h.
A short description of data set [4]: Drug metabolism in rat liver microsomes assessed as monohydroxylations on imidazopyridine at 2 uM after 30 mins by LC/MS/MS analysis. The data set is classed as ADME, Microsome. To be noted: 0.5 h.
Data set [5] deals with Cytochrome P450 2C9 (Homo sapiens, UniProt P11712). Nature of the data set: Time dependent inhibition of CYP3A4 in human liver microsomes using midazolam as substrate at 10 uM after 10 mins. The data set is classed as ADME, Microsome.
Data set [6] concerns Mycobacterium tuberculosis. Description: Antimycobacterial activity against isoniazid, rifampin, ethambutol, kanamycin and p-aminosalicylic acid-resistant Mycobacterium tuberculosis after 14 days. The data set is classed as functional. To be noted: 336 h.
Data set [7] is described as follows: Clearance in Balb/c mouse at 1 mg/kg, iv. To be noted: in vivo. The data set is classed as ADME, organism-based. Details: dose 1 mg/kg, route intravenous.
Data set [8] in a line: Drug metabolism in rat liver microsomes at 2 uM after 30 mins by LC-MS analysis. Conditions: read-out: Drug metabolism. The data set is classed as ADME, Microsome.
The target of data set [9] is CYP2D6 (Homo sapiens, UniProt P10635). Nature of the data set: Inhibition of CYP2D6 in human liver microsomes using bufuralol as substrate at 10 uM after 10 mins. To be noted: probe bufuralol. Format: ADME, Microsome.
Data set [10] in a line: Drug metabolism in mouse liver microsomes assessed as monohydroxylations on imidazopyridine at 2 uM after 30 mins by LC/MS/MS analysis. The data set is classed as ADME, Microsome. To be noted: 0.5 h.
Data set [11] is described as follows: Half life in Balb/c mouse at 100 mg/kg, po. The data set is classed as ADME, organism-based. Details: dose 100 mg/kg, route oral. Conditions: in vivo.
Data set [12] addresses CYP2C9 (Homo sapiens, UniProt P11712). Nature of the data set: Inhibition of CYP2C9 in human liver microsomes using diclofenac as substrate at 10 uM after 10 mins. Format: ADME, Microsome. Conditions: probe diclofenac.
Data set [13] in a line: Tmax in Balb/c mouse at 100 mg/kg, po. Conditions: in vivo. The data set is classed as ADME, organism-based. Details: dose 100 mg/kg, route oral.
The target of data set [14] is CYP3A4 (Homo sapiens, UniProt P11712). Description: Inhibition of CYP3A4 in human liver microsomes using midazolam as substrate at 10 uM after 10 mins. Conditions: probe midazolam. Format: ADME, Microsome.
The nature of data set [15]: Drug metabolism in human liver microsomes assessed as monohydroxylations on imidazopyridine at 2 uM after 30 mins by LC/MS/MS analysis. Conditions: 0.5 h. The data set is classed as ADME, Microsome.
The nature of data set [16]: Half life in Balb/c mouse at 3 mg/kg, po. The data set is classed as ADME, organism-based. To be noted: in vivo. Further details: dose 3 mg/kg, route oral.
The nature of data set [17]: Drug metabolism in mouse liver microsomes at 2 uM after 30 mins by LC-MS analysis. Format: ADME, Microsome. To be noted: read-out: Drug metabolism.
Data set [18] is described as follows: Tmax in Balb/c mouse at 3 mg/kg, po. Format: ADME, organism-based. Details: dose 3 mg/kg, route oral. To be noted: in vivo.
Data set [19] deals with Mycobacterium tuberculosis. Nature of the data set: Antimycobacterial activity against Mycobacterium tuberculosis H37Rv expressing pCHERRY3 after 4 days by plate format assay in presence of bovine serum albumin. Format: functional, organism-based.
Data set [20] can be described thus: Drug metabolism in human liver microsomes at 2 uM after 30 mins by LC-MS analysis. To be noted: read-out: Drug metabolism. The data set is classed as ADME, Microsome.
The subject of data set [21] is Mycobacterium tuberculosis. Description: Antimycobacterial activity against drug-sensitive Mycobacterium tuberculosis clinical isolate 2 after 14 days. The data set is classed as functional. To be noted: clinical isolate 2, 336 h.
The subject of data set [22] is Mycobacterium tuberculosis. Nature of the data set: Antimycobacterial activity against drug-sensitive Mycobacterium tuberculosis clinical isolate 1 after 14 days. Format: functional. To be noted: clinical isolate 1, 336 h.
Data set [23] is described as follows: Tmax in Balb/c mouse at 10 mg/kg, po. Format: ADME, organism-based. Details: dose 10 mg/kg, route oral. Conditions: in vivo.
A short description of data set [24]: Half life in Balb/c mouse at 10 mg/kg, po. Conditions: in vivo. Details: dose 10 mg/kg, route oral. Format: ADME, organism-based.

≈ marks a conversion by molar mass, not a printed value. Calls of active or inactive are those of the source. Some results are limits rather than exact numbers.

Cytochrome P450 2C9, sequence (P11712 whole entry): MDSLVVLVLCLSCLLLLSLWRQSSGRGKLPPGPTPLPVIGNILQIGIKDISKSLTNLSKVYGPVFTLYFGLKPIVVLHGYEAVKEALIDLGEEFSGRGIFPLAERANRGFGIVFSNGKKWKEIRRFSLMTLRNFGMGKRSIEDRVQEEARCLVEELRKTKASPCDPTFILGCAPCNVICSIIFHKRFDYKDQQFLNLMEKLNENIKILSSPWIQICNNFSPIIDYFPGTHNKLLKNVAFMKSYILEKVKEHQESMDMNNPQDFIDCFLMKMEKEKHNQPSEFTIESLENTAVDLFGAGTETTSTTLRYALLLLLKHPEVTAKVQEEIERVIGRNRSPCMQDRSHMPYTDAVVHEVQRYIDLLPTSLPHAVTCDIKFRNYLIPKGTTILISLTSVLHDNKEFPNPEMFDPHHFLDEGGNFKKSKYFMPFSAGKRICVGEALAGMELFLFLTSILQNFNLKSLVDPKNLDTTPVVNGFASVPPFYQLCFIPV
CYP2D6, sequence (P10635 whole entry): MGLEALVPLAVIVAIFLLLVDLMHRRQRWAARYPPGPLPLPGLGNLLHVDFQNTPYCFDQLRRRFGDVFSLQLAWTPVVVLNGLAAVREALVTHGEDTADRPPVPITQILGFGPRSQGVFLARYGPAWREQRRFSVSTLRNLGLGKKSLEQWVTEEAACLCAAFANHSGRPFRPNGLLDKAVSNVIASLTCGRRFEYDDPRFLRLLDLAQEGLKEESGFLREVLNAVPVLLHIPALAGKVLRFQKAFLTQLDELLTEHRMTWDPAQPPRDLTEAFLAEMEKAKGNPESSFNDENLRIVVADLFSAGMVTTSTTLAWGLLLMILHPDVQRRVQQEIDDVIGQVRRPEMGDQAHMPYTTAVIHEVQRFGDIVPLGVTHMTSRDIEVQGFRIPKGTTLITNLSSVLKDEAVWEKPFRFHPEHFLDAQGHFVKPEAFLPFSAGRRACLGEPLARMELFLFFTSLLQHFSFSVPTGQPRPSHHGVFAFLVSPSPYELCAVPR
CYP3A4, sequence (P11712 whole entry): as the sequence (P11712 whole entry) above
CYP2C9, sequence (P11712 whole entry): as above

`COc1cccc(CNC(=O)c2c(C)nc3cc(Cl)ccn23)c1` came in with an MIC99 in [1] of 1.1 µM (≈ 0.363 µg/mL).

For `COc1cccc(NC(=O)c2c(C)nc3cc(C)ccn23)c1`, in [1], the MIC99 was over 20 µM.

Molecule `Cc1ccc2nc(C)c(C(=O)NCc3ccc(Oc4ccc(F)cc4)cc3)n2c1` displayed an MIC99 in data set [1] of 0.005 µM (≈ 0.00195 µg/mL).

As for `Cc1ccn2c(C(=O)NCc3ncc(C(F)(F)F)cc3Cl)c(C)nc2c1`, the metabolised at 0.5 h, 2 µM in data set [2] stood at 41.2%; in data set [8], 19.3%; in data set [17] it was 79.9%; in [20] it was 0%. Besides, the MIC99 in [3] was 6.5 µM (≈ 2.49 µg/mL); in data set [6], 0.4 µM (≈ 0.153 µg/mL); in [1] it was 0.7 µM (≈ 0.268 µg/mL). For the same molecule, the Drug metabolism entry in data set [4], in data set [10] and in data set [15] was “Active” throughout. In addition, the “inhibition (INH)” value in data set [5] is “Active”. In [7], this molecule came in with a clearance of 43.1 mL/min/kg. Besides, the inhibition at 10 min, 10 µM in data set [9] turned out to be 2.8%; in [12], 11.5%; in data set [14], 0%. Besides, the half-life in data set [11] was 1.93 h; in [16], 5 h. Moreover, the values for the Tmax in data set [13] and in [18] were 2 h and 0.25 h, respectively. Also, the result in data set [19] was Active.

Turning to `Cc1ccc2nc(C)c(C(=O)NCc3ccccc3)n2c1`, the MIC99 in [21] is under 0.04 µM; in data set [3], under 0.04 µM; in [6], under 0.04 µM; in data set [1], 0.006 µM (≈ 0.00168 µg/mL); in data set [22] it was 0.04 µM (≈ 0.0112 µg/mL).

For `Cc1ccn2c(C(=O)NCc3ccc(Oc4ccc(F)cc4)cc3)c(C)nc2c1`, the MIC99 was under 0.03 µM in data set [21], under 0.03 µM in data set [6], 0.004 µM (≈ 0.00156 µg/mL) in data set [1] and under 0.03 µM in data set [22]. In data set [3], this molecule gave an MIC90 of 0.03 µM (≈ 0.0117 µg/mL). The Drug metabolism result in data set [4], in [10] and in data set [15] was “Active” throughout. For the same molecule, the “inhibition (INH)” value in data set [5] is listed as “Active”. Moreover, the Tmax in [23] and in [18] was 0.5 h in each case. Also, the half-life in data set [24] is 13.2 h. Further, the outcome in data set [19] was Active.

As to `Cc1ccc2nc(C(F)(F)F)c(C(=O)NCc3ccc(S(C)(=O)=O)cc3)n2c1`, the MIC99 in [1] is 0.9 µM (≈ 0.37 µg/mL).

For the molecule `NNC(=O)c1ccncc1` [ISONIAZID], the MIC99 in data set [1] amounted to 0.3 µM (≈ 0.0411 µg/mL).

`CO[C@H]1/C=C/O[C@@]2(C)Oc3c(C)c(O)c4c(O)c(c(/C=N/N5CCN(C)CC5)c(O)c4c3C2=O)NC(=O)/C(C)=C\C=C\[C@H](C)[C@H](O)[C@@H](C)[C@@H](O)[C@@H](C)[C@H](OC(C)=O)[C@@H]1C` [RIFAMPIN] registered an MIC99 in data set [1] of 0.003 µM (≈ 0.00247 µg/mL).

As to `Cc1nc2c(C)cccn2c1C(=O)NCc1ccc(Oc2ccc(F)cc2)cc1`, the MIC99 in data set [1] is 0.1 µM (≈ 0.0389 µg/mL).

`Cc1ccc2nc(C)c(C(=O)NCc3ccc(S(C)(=O)=O)cc3)n2c1`: in data set [1], the MIC99 came to 0.4 µM (≈ 0.143 µg/mL).

In turn, `Cc1ccn2c(C(=O)NCc3ccc(S(N)(=O)=O)cc3)c(C)nc2c1` came in with an MIC99 in [1] of over 20 µM.

As for `O=[N+]([O-])c1cn2c(n1)OC[C@@H](OCc1ccc(OC(F)(F)F)cc1)C2` [PRETOMANID], the MIC99 in [21] is over 13.9 µM; in data set [3] it was 0.5 µM (≈ 0.18 µg/mL); in data set [6] it was 0.5 µM (≈ 0.18 µg/mL); in data set [1], 0.6 µM (≈ 0.216 µg/mL); in [22], 0.5 µM (≈ 0.18 µg/mL).

With `C[C@H]1COC2(CCN(c3nc(=O)c4cc(C(F)(F)F)cc([N+](=O)[O-])c4s3)CC2)O1` [BTZ-043], in [1], the MIC99 came to 0.003 µM (≈ 0.00129 µg/mL).

On to `Cc1ccn2c(C(=O)NCc3ccccc3)c(C)nc2c1`, for which, in [8], the metabolised at 0.5 h, 2 µM came to 71%. The molecule also registered an MIC99 in data set [1] of 0.2 µM (≈ 0.0559 µg/mL). For the same molecule, in [19], the result was Active.
